The text below walks through data of BindingDB's records for doi:10.1021/jm010936y (2002).

The target in the experiment is Neuronal acetylcholine receptor alpha3/beta4 (Sus scrofa). The experiment can be described thus: Binding affinity to Nicotinic acetylcholine receptor alpha3-beta4 using +/-[3H]epibatidine as radioligand in pig adrenal gland.

In the case of `C1=C(c2ccnnc2)C2CC[C@H](CC1)N2` [2-Pyridazin-4-yl-9-aza-bicyclo[4.2.1]non-2-ene], the affinity, expressed as Ki, was 2.5 nM.
Next, `C1=C(c2cncnc2)C2CC[C@H](CC1)N2` [2-Pyrimidin-5-yl-9-aza-bicyclo[4.2.1]non-2-ene]: 20 nM.
